Results reported in patent US9512128B2 (BAYER CROPSCIENCE AG, priority 2012, dated 2016).
Like-named read-outs stand apart in the source and are kept apart here.

Test: log P by HPLC on reversed-phase columns (C 18), EEC directive 79/831 Annex V.A8
Assay type: physicochemical
Conditions: for logP[a]: method [a]; for logP[b]: method [b]
Description: The log P values were determined according to EEC directive 79/831 Annex V.A8 by HPLC (High Performance Liquid Chromatography) on reversed-phase columns (C 18), using the methods below:
[a] The LC-MS determination in the acidic range is carried out at pH 2.7 with 0.1% aqueous formic acid and acetonitrile (contains 0.1% formic acid) as mobile phases; linear gradient from 10% acetonitrile to 95% acetonitrile.
[b] The LC-MS determination in the neutral range is carried out at pH 7.8 using the mobile phases 0.001 molar aqueous ammonium bicarbonate solution and acetonitrile; linear gradient from 10% acetonitrile to 95% acetonitrile.

[1] = reversed-phase C18 HPLC column, pH 2.7, acidic range, pH 2.7, 0.1% aqueous formic acid / acetonitrile, read-out: log P[a]
[2] = reversed-phase C18 HPLC column, pH 7.8, neutral range, pH 7.8, 0.001 molar aqueous ammonium bicarbonate / acetonitrile, read-out: log P[b]
[3] = acidic range, pH 2.7, 0.1% aqueous formic acid / acetonitrile, read-out: log P[a]
[4] = neutral range, pH 7.8, 0.001 molar aqueous ammonium bicarbonate / acetonitrile, read-out: log P[b]

Structure (SMILES) | chromatographic logP [1] | chromatographic logP [2] | further results
N#Cc1ccc(-n2cnc3ccsc3c2=O)cc1SCC(F)(F)F [Compound 102] |  |  | logP[a]: 2.37; logP[b]: 2.31
O=c1c2sccc2ncn1-c1ccc(Cl)c(SCC(F)(F)F)c1 [Compound 103] |  |  | logP[a]: 2.90; logP[b]: 2.84
O=c1c2sccc2ncn1-c1ccc(C(F)(F)F)c(SCC(F)(F)F)c1 [Compound 104] |  |  | logP[a]: 3.09; logP[b]: 3.07
O=c1c2sccc2ncn1-c1ccc(C(F)(F)F)c([S+]([O-])CC(F)(F)F)c1 (stereo not shown) [Compound 107] |  |  | logP[a]: 2.44; logP[b]: 2.40
Cc1cc(F)c(-n2cnc3ccsc3c2=O)cc1SCC(F)(F)F [Compound 109] |  |  | logP[a]: 3.50; logP[b]: 3.42
Cc1cc(F)c(-n2cnc3c(Cl)csc3c2=O)cc1SCC(F)(F)F [Compound 110] |  |  | logP[a]: 3.56; logP[b]: 3.41
Cc1cc(F)c(-n2cnc3c(Cl)c(Cl)sc3c2=O)cc1SCC(F)(F)F [Compound 111] |  |  | logP[a]: 4.38; logP[b]: 4.24
Cc1cc(F)c(-n2cnc3c(Cl)c(Cl)sc3c2=O)cc1[S+]([O-])CC(F)(F)F (stereo not shown) [Compound 115] |  |  | logP[a]: 3.20; logP[b]: 3.13
Cc1cc(F)c(NC(=O)C(F)(F)F)cc1SCC(F)(F)F [Compound X-1, 2,2,2-Trifluoro-N-{2-fluoro-4-methyl-5-[(2,2,2-trifluoroethyl)sulphanyl]phenyl}acetamide] | 3.31 |  | 
O=C(Nc1cc(SCC(F)(F)F)c(Cl)cc1F)C(F)(F)F [Compound X-2, N-{4-Chloro-2-fluoro-5-[(2,2,2-trifluoroethyl)sulphanyl]phenyl}-2,2,2-trifluoroacetamide] | 3.34 | 3.14 | 
O=C(Nc1ccc(Cl)c(SCC(F)(F)F)c1)C(F)(F)F [Compound X-3, N-{4-Chloro-3-[(2,2,2-trifluoroethyl)sulphanyl]phenyl}-2,2,2-trifluoroacetamide] | 3.46 | 3.41 | 
Nc1cc(SCC(F)(F)F)c(Cl)cc1F [IVa-2, 4-Chloro-2-fluoro-5-[(2,2,2-trifluoroethyl)sulphanyl]aniline] | 3.02 | 3 | 
Nc1ccc(Cl)c(SCC(F)(F)F)c1 [IVa-3, 4-Chloro-3-[(2,2,2-trifluoroethyl)sulphanyl]aniline] | 2.64 | 2.69 | 
Nc1cc(SCC(F)(F)F)ccc1Cl [IVa-4, 2-Chloro-5-[(2,2,2-trifluoroethyl)sulphanyl]aniline] | 3 | 2.95 | 
Nc1cc(SCC(F)(F)F)ccc1F [IVa-5, 2-Fluoro-5-[(2,2,2-trifluoroethyl)sulphanyl]aniline] | 2.57 | 2.53 | 
Cc1cc(F)c(N)cc1[S+]([O-])CC(F)(F)F (stereo not shown) [IVb-1, 2-Fluoro-4-methyl-5-[(2,2,2-trifluoroethyl)sulphinyl]aniline] | 1.77 | 1.72 | 
Cc1cc(F)c(NC(=O)c2cnn(C)c2[N+](=O)[O-])cc1SCC(F)(F)F [N-{2-Fluoro-4-methyl-5-[(2,2,2-trifluoroethyl)sulphanyl]phenyl}-1-methyl-5-nitro-1H-pyrazole-4-carboxamide] | 3.22 | 3.16 | 
Cc1cc(F)c(B(O)O)cc1SCC(F)(F)F [VIIIa-1, {2-Fluoro-4-methyl-5-[(2,2,2-trifluoroethyl)sulphanyl]phenyl}boronic acid] | 2.34 | 2.41 | 
Cc1ccc(B(O)O)cc1SCC(F)(F)F [VIIIa-7, {4-Methyl-3-[(2,2,2-trifluoroethyl)sulphanyl]phenyl}boronic acid] | 2.3 | 2.24 | 
Cc1cc(F)c(B(O)O)cc1[S+]([O-])CC(F)(F)F (stereo not shown) [VIIIb-1, {2-Fluoro-4-methyl-5-[(2,2,2-trifluoroethyl)sulphinyl]phenyl}boronic acid] | 1.38 | 1.11 | 
Cc1ccc(B(O)O)cc1[S+]([O-])CC(F)(F)F (stereo not shown) [VIIIb-7, {4-Methyl-3-[(2,2,2-trifluoroethyl)sulphinyl]phenyl}boronic acid] | 1.41 | 1.36 | 
Cc1cc(F)c(Br)cc1SCC(F)(F)F [VIIa-1, 1-Bromo-2-fluoro-4-methyl-5-[(2,2,2-trifluoroethyl)sulphanyl]benzene] | 4.3 | 4.34 | 
O=C(Nc1ccc(Cl)cc1F)C(F)(F)F [XIII-2, N-(4-Chloro-2-fluorophenyl)-2,2,2-trifluoroacetamide] |  |  | chromatographic logP [3]: 2.53; chromatographic logP [4]: 2.4
O=[N+]([O-])c1ccc(Cl)c(SSc2cc([N+](=O)[O-])ccc2Cl)c1 [XIX-3, 1,1′-Disulphanediylbis(2-chloro-5-nitrobenzene)] |  |  | chromatographic logP [3]: 5.03; chromatographic logP [4]: 5.01

Now from value to molecule, other results behind:

chromatographic logP [1] | chromatographic logP [2] | Structure (SMILES) | further results
4.44 | 4.44 | Cc1cc(F)c(I)cc1SCC(F)(F)F [VIIa-1-I, 1-Fluoro-2-iodo-5-methyl-4-[(2,2,2-trifluoroethyl)sulphanyl]benzene] | 
4.8 | 4.77 | FC(F)(F)CSc1cc(Br)c(Cl)cc1Cl [VIIa-6, 1-Bromo-2,4-dichloro-5-[(2,2,2-trifluoroethyl)sulphanyl]benzene] | 
4.29 | 4.26 | Cc1ccc(Br)cc1SCC(F)(F)F [VIIa-7, 5-Bromo-2-methylphenyl-2,2,2-trifluoroethyl sulphide] | 
4.49 | 4.48 | Cc1ccc(I)cc1SCC(F)(F)F [VIIa-7-I, 4-Iodo-1-methyl-2-[(2,2,2-trifluoroethyl)sulphanyl]benzene] | 
3.69 | 3.81 | COc1ccc(Br)cc1SCC(F)(F)F [VIIa-8, 4-Bromo-1-methoxy-2-[(2,2,2-trifluoroethyl)sulphanyl]benzene] | 
3.21 | 3.16 | N#Cc1ccc(Br)cc1SCC(F)(F)F [VIIa-9, 4-Bromo-2-[(2,2,2-trifluoroethyl)sulphanyl]benzonitrile] | 
4.22 | 4.2 | FC(F)(F)CSc1cc(Br)ccc1C(F)(F)F [VIIa-10, 4-Bromo-2-[(2,2,2-trifluoroethyl)sulphanyl]-1-(trifluoromethyl)benzene] | 
4.81 | 4.77 | Cc1cc(C)c(SCC(F)(F)F)cc1Br [VIIa-11, 1-Bromo-2,4-dimethyl-5-[(2,2,2-trifluoroethyl)sulphanyl]benzene] | 
4.41 |  | Cc1cc(F)c(NC(=O)C(F)(F)F)cc1SSc1cc(NC(=O)C(F)(F)F)c(F)cc1C [XI-1, N,N′-[Disulphanediylbis(6-fluoro-4-methylbenzene-3,1-diyl)]bis(2,2,2-trifluoroacetamide)] | 
4.6 | 3.82 | O=C(Nc1cc(SSc2cc(NC(=O)C(F)(F)F)c(F)cc2Cl)c(Cl)cc1F)C(F)(F)F [XI-2, N,N′-[Disulphanediylbis(4-chloro-6-fluorobenzene-3,1-diyl)]bis(2,2,2-trifluoroacetamide)] | 
2.4 |  | Cc1ccc(NC(=O)C(F)(F)F)c(F)c1 [XIII-1, 2,2,2-Trifluoro-N-(2-fluoro-4-methylphenyl)acetamide] | 
